This assay deals with T1, ΔF508-CFTR (Homo sapiens, UniProt P13569, DEL508-508).
T1 construct: host or cells: CFBE41o-, doxycycline-inducible
Description: CFTR cell surface levels using HRP-tagged ΔF508-CFTR expressing CFBE cells, in the presence of a co-corrector. In kind it is cell-based. The text has this:
Measuring CFTR Cell Surface Levels Using HRP-Tagged ΔF508-CFTR Expressing CFBE Cells
The HRP-tagged ΔF508-CFTR cell assay measures the expression of CFTR-ΔF508 at the plasma membrane. CFTR-ΔF508 has a folding defect leading to absence of protein at the plasma membrane. This assay is used to evaluate the capacity of compounds to increase the expression of CFTR-ΔF508 at the plasma membrane. The CFTR-ΔF508 is tagged with HRP (horse radish peroxidase enzyme) within the ECL4 (Extracellular loop 4) of CFTR (Phuan, P.-W. et al. Synergy-based small-molecule screen using a human lung epithelial cell line yields ΔF508-CFTR correctors that augment VX-809 maximal efficacy. Mol. Pharmacol. 86, 42-51 (2014)). When HRP-tagged ΔF508-CFTR is present at the plasma membrane, the HRP enzyme activity can be measured. The amount of CFTR-ΔF508 that can be rescued to the plasma membrane is correlated with the amount of functional enzyme that can be measured.
There are several ways to measure the capacity of compounds to rescue CFTR-ΔF508 to the plasma membrane; either compounds are evaluated on their own and the impact on plasma membrane levels is measured or compounds are evaluated in combination with a co-corrector, i.e. a compound that rescues CFTR-ΔF508 to the plasma membrane but rescue can be enhanced by addition of compounds due to a complementary mode of action.
Activity of Compounds in Combination with Co-Corrector:
For this purpose doxycycline-inducible ΔF508-CFTR-HRP expressing CFBE4lo− cells (obtained from Gergely Lukacs, McGill University) were maintained in MEM (Minimum Essential Medium, Gibco; 31095) supplemented with 10% fetal bovine serum (Hyclone; SV30160.03) under puromycin (3 μg/mL) and G418 selection (0.2 mg/mL). For compound testing, cells were seeded at 4000 cells/well in white 384-well plates (Greiner; 781080) in 50 μL of medium containing 0.5 μg/mL doxycycline and incubated for 68 hours at 37° C., 5% CO2. On day four, 10 μL of test compounds diluted in PBS (phosphate buffered saline) were added to the plates at a final DMSO concentration of 0.1%. In order to measure compound synergy with a co-corrector, 3 μM co-corrector (3-[(2R,4R)-4-({[1-(2,2-difluoro-1,3-benzodioxol-5-yl)cyclopropyl]carbonyl}amino)-7-methoxy-3,4-dihydro-2H-chromen-2-yl]benzoic acid) was added along with test compounds. All compound plates contained negative controls (DMSO) and positive controls (3 μM co-corrector). Cell plates were incubated at 33° C., 5% CO2 for 20 hours. On day five, the cells were washed five times with phosphate-buffered saline, and HRP activity was assayed by the addition of 50 μL/well of HRP substrate (SuperSignal™ West Pico Chemiluminescent Substrate, Thermo Scientific; 34080). After incubation for 15 minutes in the dark, the chemiluminescence was measured using a plate reader (EnVision®, Perkin Elmer). Raw data were normalized to percentage activity values using the equation: 100×(Sample−Negative control)/(Positive control−Negative Control).

The mark [1] stands for this setting: HRP-tagged ΔF508-CFTR CFBE cells, in the presence of 3 μM co-corrector.
[2] abbreviates: HRP-tagged ΔF508-CFTR CFBE cells, in the presence of 3 μM co-corrector, read-out: EC50.

The EC50 is the midpoint of the concentration-response curve.

Where two headings read alike, the source gives them in different places.

T1 sequence (P13569 with tags, fused parts or gaps DEL508-508): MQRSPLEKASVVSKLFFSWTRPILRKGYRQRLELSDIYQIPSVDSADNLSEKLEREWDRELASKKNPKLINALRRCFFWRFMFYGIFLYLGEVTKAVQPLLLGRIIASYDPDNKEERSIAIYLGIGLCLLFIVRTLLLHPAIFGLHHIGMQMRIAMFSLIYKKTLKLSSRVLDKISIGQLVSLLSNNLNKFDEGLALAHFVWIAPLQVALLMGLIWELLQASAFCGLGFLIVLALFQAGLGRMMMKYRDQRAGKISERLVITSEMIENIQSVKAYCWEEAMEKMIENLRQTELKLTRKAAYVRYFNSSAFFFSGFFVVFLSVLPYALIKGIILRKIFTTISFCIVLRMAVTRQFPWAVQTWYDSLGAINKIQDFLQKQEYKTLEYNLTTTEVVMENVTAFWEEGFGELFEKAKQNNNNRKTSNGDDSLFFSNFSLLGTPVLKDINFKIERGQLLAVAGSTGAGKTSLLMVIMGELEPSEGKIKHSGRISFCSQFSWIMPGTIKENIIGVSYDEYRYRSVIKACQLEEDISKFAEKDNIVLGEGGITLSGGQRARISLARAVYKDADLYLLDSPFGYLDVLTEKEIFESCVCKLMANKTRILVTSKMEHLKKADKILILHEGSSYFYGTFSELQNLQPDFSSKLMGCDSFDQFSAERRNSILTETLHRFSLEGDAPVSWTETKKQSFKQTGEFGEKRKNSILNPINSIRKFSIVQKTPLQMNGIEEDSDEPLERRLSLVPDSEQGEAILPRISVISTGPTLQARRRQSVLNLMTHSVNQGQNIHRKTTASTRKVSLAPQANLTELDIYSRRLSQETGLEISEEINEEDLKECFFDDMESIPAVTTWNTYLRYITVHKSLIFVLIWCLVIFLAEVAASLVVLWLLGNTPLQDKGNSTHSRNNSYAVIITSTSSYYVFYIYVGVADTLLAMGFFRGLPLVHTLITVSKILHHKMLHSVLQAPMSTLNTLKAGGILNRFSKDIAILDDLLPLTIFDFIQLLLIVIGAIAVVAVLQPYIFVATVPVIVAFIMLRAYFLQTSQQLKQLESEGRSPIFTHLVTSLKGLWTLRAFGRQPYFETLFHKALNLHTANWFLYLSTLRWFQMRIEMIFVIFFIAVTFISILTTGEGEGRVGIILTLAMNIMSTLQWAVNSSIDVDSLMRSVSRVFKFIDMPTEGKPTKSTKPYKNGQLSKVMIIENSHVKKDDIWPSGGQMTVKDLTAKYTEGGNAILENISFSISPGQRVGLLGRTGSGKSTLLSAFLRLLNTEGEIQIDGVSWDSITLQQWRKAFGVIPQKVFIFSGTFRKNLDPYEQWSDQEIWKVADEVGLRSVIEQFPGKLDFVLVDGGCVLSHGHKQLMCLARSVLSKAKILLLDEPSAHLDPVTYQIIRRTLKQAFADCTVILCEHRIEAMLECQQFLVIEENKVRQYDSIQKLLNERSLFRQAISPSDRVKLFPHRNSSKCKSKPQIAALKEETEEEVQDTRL

Turning to `Cc1nn(-c2ccccc2)c2nc(C(=O)NS(C)(=O)=O)cc(-c3ccc(N4CCOCC4)cc3)c12` [Compound 1, N-(methanesulfonyl)-3-methyl-4-[4-(morpholin-4-yl)phenyl]-1-phenyl-1H-pyrazolo[3,4-b]pyridine-6-carboxamide], the “% Activation” value under setting [1] was found to be 297.2%. Further, the EC50 under setting [2] is 1190 nM.

On to `CCS(=O)(=O)NC(=O)c1cc(-c2ccc(N3CCOCC3)cc2)c2c(C)nn(-c3ccccc3)c2n1` [Compound 5, N-(ethanesulfonyl)-3-methyl-4-[4-(morpholin-4-yl)phenyl]-1-phenyl-1H-pyrazolo[3,4-b]pyridine-6-carboxamide], for which, under setting [1], the “% Activation” value is given as 362.75%. The EC50 under setting [2] is 372 nM.

`COCC1CCN(c2cc(C(=O)NS(=O)(=O)CCC(=O)OC)nc3c2c(C2CCC2)nn3-c2ccccc2)CC1` [Compound 288, methyl 3-({3-cyclobutyl-4-[4-(methoxymethyl)piperidin-1-yl]-1-phenyl-1H-pyrazolo[3,4-b]pyridine-6-carbonyl}sulfamoyl)propanoate]: under setting [1], the “% Activation” value is 566.4%. Moreover, the half-maximal effective concentration (EC50) under setting [2] was found to be 74.3 nM.

Take `COCC1CCN(c2cc(C(=O)NS(=O)(=O)CCC(=O)O)nc3c2c(C2CCC2)nn3-c2ccccc2)CC1` [Compound 289, 3-({3-cyclobutyl-4-[4-(methoxymethyl)piperidin-1-yl]-1-phenyl-1H-pyrazolo[3,4-b]pyridine-6-carbonyl}sulfamoyl)propanoic Acid]: the “% Activation” value under setting [1] came to 366.4%. Besides, under setting [2], the EC50 turned out to be 3330 nM.

With `COCCN(C)c1cc(C(=O)NS(C)(=O)=O)nc2c1c(C(C)C)nn2-c1ccc(F)cc1` [Compound 301, 1-(4-fluorophenyl)-N-(methanesulfonyl)-4-[(2-methoxyethyl)(methyl)amino]-3-(propan-2-yl)-1H-pyrazolo[3,4-b]pyridine-6-carboxamide], under setting [1], the “% Activation” value is recorded as 376.6%. In addition, the EC50 under setting [2] is 1140 nM.

Regarding `COCC1CCN(c2cc(C(=O)NS(=O)(=O)CCCN3CCC3)nc3c2c(C(C)C)nn3-c2ccc(F)cc2)CC1` [Compound 302, N-[3-(azetidin-1-yl)propane-1-sulfonyl]-1-(4-fluorophenyl)-4-[4-(methoxymethyl)piperidin-1-yl]-3-(propan-2-yl)-1H-pyrazolo[3,4-b]pyridine-6-carboxamide], the “% Activation” value under setting [1] is 401.45%. Further, the EC50 under setting [2] was found to be 1800 nM.

Turning to `CC(C)c1nn(-c2ccc(F)cc2)c2nc(C(=O)NS(C)(=O)=O)cc(OCCC3CCCCN3C)c12` (centres unmarked) [Compound 305, 1-(4-fluorophenyl)-N-(methanesulfonyl)-4-[2-(1-methylpiperidin-2-yl)ethoxy]-3-(propan-2-yl)-1H-pyrazolo[3,4-b]pyridine-6-carboxamide], under setting [1], the “% Activation” value is given as 267%. Under setting [2], the EC50 is 2440 nM.

Consider `CC(=O)N1CCC(F)(COc2cc(C(=O)NS(C)(=O)=O)nc3c2c(C(C)C)nn3-c2ccc(F)cc2)CC1` [Compound 308, 4-[(1-acetyl-4-fluoropiperidin-4-yl)methoxy]-1-(4-fluorophenyl)-N-(methanesulfonyl)-3-(propan-2-yl)-1H-pyrazolo[3,4-b]pyridine-6-carboxamide], for which the “% Activation” value under setting [1] amounted to 328.85%. Besides, the concentration for a half-maximal effect (EC50) under setting [2] worked out at 2490 nM.

Consider `COCC(COC)Oc1cc(C(=O)NS(C)(=O)=O)nc2c1c(C(C)C)nn2-c1ccc(F)cc1` [Compound 311, 4-[(1,3-dimethoxypropan-2-yl)oxy]-1-(4-fluorophenyl)-N-(methanesulfonyl)-3-(propan-2-yl)-1H-pyrazolo[3,4-b]pyridine-6-carboxamide], for which the “% Activation” value under setting [1] came to 241.35%. Under setting [2], the EC50 was 1060 nM.

Consider `CC(C)c1nn(-c2ccc(F)cc2)c2nc(C(=O)NS(C)(=O)=O)cc(OCC3COCCO3)c12` (centres unmarked) [Compound 312, 4-[(1,4-dioxan-2-yl)methoxy]-1-(4-fluorophenyl)-N-(methanesulfonyl)-3-(propan-2-yl)-1H-pyrazolo[3,4-b]pyridine-6-carboxamide], for which the “% Activation” value under setting [1] was 291.5%. Besides, the EC50 under setting [2] worked out at 1880 nM.

Turning to `CC(C)c1nn(-c2ccc(F)cc2)c2nc(C(=O)NS(C)(=O)=O)cc(OCCOC3COC3)c12` [Compound 313, 1-(4-fluorophenyl)-N-(methanesulfonyl)-4-{2-[(oxetan-3-yl)oxy]ethoxy}-3-(propan-2-yl)-1H-pyrazolo[3,4-b]pyridine-6-carboxamide], the “% Activation” value under setting [1] is recorded as 319.75%. The EC50 under setting [2] came to 1750 nM.

Turning to `CS(=O)(=O)NC(=O)c1cc(OCCCN2CCCCC2)c2c(C3CCC3)nn(-c3ccccc3)c2n1` [Compound 314, 3-cyclobutyl-N-(methanesulfonyl)-1-phenyl-4-[3-(piperidin-1-yl)propoxy]-1H-pyrazolo[3,4-b]pyridine-6-carboxamide], the “% Activation” value under setting [1] is recorded as 375.8%. For the same compound, the EC50 under setting [2] came out at 693 nM.

For the compound `CC(=O)N1CCC(COc2cc(C(=O)NS(C)(=O)=O)nc3c2c(C(C)C)nn3-c2ccc(F)cc2)CC1` [Compound 321, 4-[(1-acetylpiperidin-4-yl)methoxy]-1-(4-fluorophenyl)-N-(methanesulfonyl)-3-(propan-2-yl)-1H-pyrazolo[3,4-b]pyridine-6-carboxamide], the “% Activation” value under setting [1] stood at 314.37%. Further, under setting [2], the EC50 was found to be 497 nM.

As to `COCC(COC)Oc1cc(C(=O)NS(C)(=O)=O)nc2c1c(C1CCC1)nn2-c1ccccc1` [Compound 324, 3-cyclobutyl-4-[(1,3-dimethoxypropan-2-yl)oxy]-N-(methanesulfonyl)-1-phenyl-1H-pyrazolo[3,4-b]pyridine-6-carboxamide], under setting [1], the “% Activation” value stood at 259.7%. Further, the EC50 under setting [2] was determined as 1640 nM.

Turning to `CC(=O)N1CC[C@@H]2CN(c3cc(C(=O)NS(=O)(=O)CCCN4CCOCC4)nc4c3c(C3CCC3)nn4-c3ccccc3)CC[C@@H]21` [Compound 332, 4-[(3aR,7aS)-1-acetyloctahydro-5H-pyrrolo[3,2-c]pyridin-5-yl]-3-cyclobutyl-N-[3-(morpholin-4-yl)propane-1-sulfonyl]-1-phenyl-1H-pyrazolo[3,4-b]pyridine-6-carboxamide], the EC50 was 624 nM. The “% Activation” value under setting [1] was 448.25%.

Regarding `CC(C)c1nn(-c2ccc(F)cc2)c2nc(C(=O)NS(C)(=O)=O)cc(N3CCC4(CC3)CN(C)C(=O)O4)c12` [Compound 338, 1-(4-fluorophenyl)-N-(methanesulfonyl)-4-(3-methyl-2-oxo-1-oxa-3,8-diazaspiro[4.5]decan-8-yl)-3-(propan-2-yl)-1H-pyrazolo[3,4-b]pyridine-6-carboxamide], the “% Activation” value under setting [1] was determined as 344.25%. Under setting [2], the EC50 was 946 nM.

With `CC(C)c1nn(-c2ccc(F)cc2)c2nc(C(=O)NS(C)(=O)=O)cc(N3CCC4(CC3)NC(=O)NC4=O)c12` [Compound 341, 4-(2,4-dioxo-1,3,8-triazaspiro[4.5]decan-8-yl)-1-(4-fluorophenyl)-N-(methanesulfonyl)-3-(propan-2-yl)-1H-pyrazolo[3,4-b]pyridine-6-carboxamide], the “% Activation” value under setting [1] worked out at 165.4%. Further, the EC50 under setting [2] came to 3330 nM.

As to `CCOCC1(F)CCN(c2cc(C(=O)NS(C)(=O)=O)nc3c2c(C(C)C)nn3-c2ccc(F)cc2)CC1` [Compound 342, 4-[4-(ethoxymethyl)-4-fluoropiperidin-1-yl]-1-(4-fluorophenyl)-N-(methanesulfonyl)-3-(propan-2-yl)-1H-pyrazolo[3,4-b]pyridine-6-carboxamide], the “% Activation” value under setting [1] stood at 336.5%. Besides, under setting [2], the EC50 stood at 207 nM.

On to `COCCOCC1(F)CCN(c2cc(C(=O)NS(C)(=O)=O)nc3c2c(C(C)C)nn3-c2ccc(F)cc2)CC1` [Compound 343, 4-{4-fluoro-4-[(2-methoxyethoxy)methyl]piperidin-1-yl}-1-(4-fluorophenyl)-N-(methanesulfonyl)-3-(propan-2-yl)-1H-pyrazolo[3,4-b]pyridine-6-carboxamide], for which, under setting [1], the “% Activation” value is given as 356.9%. In addition, the EC50 under setting [2] was determined as 566 nM.

(Values after patent publication US10259810B2, “N-sulfonylated pyrazolo[3,4-b]pyridin-6-carboxamides and method of use” (AbbVie S.à.r.l., priority 2015, dated 2019).)
